Results taken from US20220120753A1, “METHOD FOR DETERMINING PROGNOSIS OF CANCER” (The University of Tokyo, priority 2018, published 2022).
Read-outs that look alike come from different tables or passages of the source.

What was measured:
[1] = tested on: CFP-LacER, YFP-SRC-1 and FLAG-KDM4B foci; settings: in the presence of E2 and 4-OHT
Method: (§1) The obtained cells were immunostained with anti-FLAG antibodies. Representative images are shown.
U205-LacO-I-SceI-TetO cells were cultured in a glass bottom dish (Iwaki) on the stage of BZ-9000 (Keyence) equipped with an environmental chamber (Keyence). The microscopic image was analyzed with BZ-9000 software.
In order to immobilize ERα on a Lac operator array stably incorporated into living cells, using a CFP-tagged lac receptor-ERα chimeric protein (CFP-LacER), accumulation of YFP-SRC-1 and KDM4B in an ERα-immobilized position was examined.

[2] = tested on: ERα complex with KDM4B and SRC-3
Sequence of ERα complex with KDM4B and SRC-3 (P03372 whole entry, one chain of several): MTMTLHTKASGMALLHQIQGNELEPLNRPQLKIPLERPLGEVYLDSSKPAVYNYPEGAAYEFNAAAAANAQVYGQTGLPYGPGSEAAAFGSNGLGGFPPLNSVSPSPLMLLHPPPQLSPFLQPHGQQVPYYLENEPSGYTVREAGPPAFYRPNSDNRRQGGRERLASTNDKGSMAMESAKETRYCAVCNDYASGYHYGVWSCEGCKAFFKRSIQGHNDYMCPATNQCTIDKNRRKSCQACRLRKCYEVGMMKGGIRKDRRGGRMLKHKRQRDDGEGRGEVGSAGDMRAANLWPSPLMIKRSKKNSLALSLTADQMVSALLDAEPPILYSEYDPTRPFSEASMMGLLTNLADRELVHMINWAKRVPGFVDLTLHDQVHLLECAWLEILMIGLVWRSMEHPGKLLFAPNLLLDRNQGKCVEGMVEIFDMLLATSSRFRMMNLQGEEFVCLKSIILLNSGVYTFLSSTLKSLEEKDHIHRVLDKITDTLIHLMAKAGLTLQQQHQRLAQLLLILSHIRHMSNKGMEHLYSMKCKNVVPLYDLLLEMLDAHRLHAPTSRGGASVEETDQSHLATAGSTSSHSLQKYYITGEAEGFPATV
Method: (§2) Using total RNA derived from individual cells recovered over time, qPCR was carried out. […] Using total RNA prepared from the treated cells, qPCR was carried out. […] Using the nucleus extract, immunoprecipitation and immunoblotting were carried out.
as §1
(§3) Total RNA was prepared from the cells treated with various drugs, and qPCR was carried out.
(§4) Immunoprecipitation and immunoblotting were carried out according to the method described in Johmura et al., Molecular Cell 55: 73-84, 2014. The cells were dissolved in a TBSN buffer (20 mM Tris-Cl (pH 8.0), 150 mM NaCl, 0.5% NP-40, 5 mM EGTA, 1.5 mM EDTA, and 0.5 mM Na3VO4). The obtained cell lysate was centrifuged at 4° C. at 15,000×g for 20 minutes, and was then used in immunoprecipitation using an antibody.
Regarding immunoprecipitation of ERα and KDM4B, a nuclear extract was prepared according to the method described in Hirokawa et al., Cancer Res. 74: 3880-3889, 2014. Cell pellets were suspended in buffer A (10 mM Hepes-KOH pH 7.9, 10 mM KCl, 1.5 mM MgCl2, 0.5 mM DTT, 0.5 mM PMSF, and protease inhibitor cocktail (Nakalai Tesque)) having five times the volume of the cell pellets, and the suspension was then incubated on ice for 5 minutes. Thereafter, the cells were centrifuged at 4° C. at 500×g for 5 minutes, and the obtained cell pellets were then suspended in buffer A having two times the volume of the cell pellets for homogenization. The homogenized cell suspension was centrifuged at 4° C. at 4,000×g for 5 minutes, and a cell nucleus was recovered in a precipitate. To the recovered nucleus, an equal amount of buffer B (20 mM Hepes-KOH pH 7.9, 600 mM KCl, 1.5 mM MgCl2, 0.2 mM EDTA, 25% glycerol, 0.5 mM DTT, 0.5 mM PMSF, and protease inhibitor cocktail) was added and suspended, and the obtained mixture was then blended at 4° C. for 30 minutes, using a rotator. The nuclear extract was centrifuged at 4° C. at 16,000×g for 15 minutes, and was then recovered in a supernatant. The nuclear extract was dialyzed against buffer C (20 mM Hepes-KOH pH 7.9, 100 mM KCl, 0.2 mM EDTA, 20% glycerol, 0.5 mM DTT, and 0.5 mM PMSF). After completion of the dialysis, the nuclear extract was centrifuged at 4° C. at 16,000×g for 30 minutes, and the remaining precipitate was then eliminated.
A protein (20 to 50 μg) was separated from the total cell lysate by SDS-PAGE, and was then transferred into a PVDF membrane (Millipore), which was then used in immunoblotting using various types of antibodies.

T47D cells = assay: Colony formation assay, T47D cells; type: cell-based, human; settings: Fbxo22-knocked-out T47D cells in the presence of E2 and 4-OHT, compared with control cells
Method: The cells (5×10^2) were seeded on a 6-well plate, and were then cultured for 2 weeks. Thereafter, colonies were immobilized with methanol/acetic acid (1:1) for 15 minutes, and were then stained in 20% methanol/PBS containing 0.4% trypan blue (Sigma) for 15 minutes, followed by counting.

[3] = tested on: KDM4B forming a complex with ERα
Sequence of KDM4B forming a complex with ERα (P03372 whole entry, one chain of several): as above

[4] = tested on: ERα-dependent transcription; assay: qPCR of ERα target gene transcripts (EBAG9, GREB1) in MCF-7 cells; type: cell-based, human
Method: as §2
Using total RNA prepared from the cells over time, qPCR was carried out.
as §3
The cells were washed with PBS three times, and were then cultured in phenol red-non-added DMEM (supplemented with 5% charcoal-stripped FBS) for 72 hours.
(§5) Quantitative RT-PCR was carried out according to the method described in Johmura et al., Molecular Cell 55: 73-84, 2014. Total RNA was extracted using ISOGEN II (Wako), and using this as a template, cDNA was synthesized using SuperScript II cDNA synthesis kit (Invitrogen). PCR amplification was carried out in a 96-well optical reaction plate, using Power SYBR Green PCR Master Mix (Applied Biosystems). The relative expression ratio of individual genes was normalized with respect to the expression level of GAPDH.

MCF-7 cells = assay: Colony formation assay, MCF-7 cells; type: cell-based, human
Method: Representative colony images (upper view) and the results of the assay are shown. […] Ki-67-positive and cleaved caspase 3-positive cells were counted, and the counted numbers were then normalized with respect to the cell nucleus in each section. *p<0.05, ***p<0.05. The cells (5×10^2) were seeded on a 6-well plate, and were then cultured for 2 weeks. Thereafter, colonies were immobilized with methanol/acetic acid (1:1) for 15 minutes, and were then stained in 20% methanol/PBS containing 0.4% trypan blue (Sigma) for 15 minutes, followed by counting.

[5] = tested on: FLAG-Fbxo22 binding to ERα
Sequence of FLAG-Fbxo22 binding to ERα (P03372 whole entry): as the sequence (P03372 whole entry, one chain of several) above
Method: as §4

T47D breast cancer cells = assay: T47D cells transplanted into the mammary gland fat pad of NOD/Scid mice; type: in vivo, mouse; settings: NOD/Scid mice with Fbxo22-knocked-out T47D cells treated with 4-OHT pellets, compared with mice with control cells
Method: Representative colony images (upper view) and the results of the assay are shown. […] Ki-67-positive and cleaved caspase 3-positive cells were counted, and the counted numbers were then normalized with respect to the cell nucleus in each section. *p<0.05, ***p<0.05. […] Thereafter, the cells were treated with trypsin, were then suspended in PBS, and were then mixed with Matrigel (CORNING 354230) at a mixing ratio of 1:1. […] Six weeks later, the mice were euthanized, the tumor was then excised, and the size of the tumor was then measured. Thereafter, the tumor was fixed with formalin and was then embedded in paraffin, and an HE stain slide glass was produced. The size of a tumor was evaluated as follows: V=(length×width×height×0.5326) mm^3. All of the mice were fed under a specific pathogen-free environment, and were treated in accordance with Animal Experiment Guidelines, Graduate School of Medicine and Faculty of Medicine, The University of Tokyo.

ERα [6] = settings: U2OS cells, Fbxo22 not expressed
Method: as §1, §5

ERα [7] = assay: ChIP-Seq analysis of ERα binding in MCF-7 cells; type: cell-based, human; settings: for ERα accumulation peaks detected: 2 hours, E2 line = E2 (10 nM), 4-OHT line = E2+4-OHT
Source text: Thereafter, DNA was extracted using a DNA purification column.

[8] = tested on: ERα-positive/HER2-negative breast cancer; assay: Relapse-free survival of ERα-positive/HER2-negative breast cancer patients stratified by Fbxo22; type: in vivo, human; settings: patient group that had undergone the TAM treatment
Source text: FIGS. 9A and 9B show representative immunohistochemical staining images of a normal mammary gland (FIG. 9A), an Fbxo22-positive mammary gland of human breast cancer (FIG. 9B, left view), and an Fbxo22-negative mammary gland (FIG. 9B, right view). Scale bar: 20 μm. FIGS. 9C to 9F show Kaplan-Meier survival curves formed by stratifying ERα-positive/HER2-negative breast cancer (FIG. 9C), Luminal A (low Ki-67) breast cancer (FIG. 9D), lymph node metastasis-negative breast cancer (FIG. 9E), and tamoxifen-administered breast cancer (FIG. 9F) by the expression of Fbxo22. The P value and the hazard ratio were calculated according to a log-rank test.
Formalin fixing, paraffin embedding, core needle aspiration biopsy cytology panels, and the clinical data thereof, which were derived from 163 cases of continuously treated T2 (diameter: 2 to 5 cm) ERα-positive/HER-2-negative primary breast cancers, were obtained from patients who underwent surgery at St. Marianna University School of Medicine Hospital from 2005 to 2009. […] A tissue section was incubated with anti-Fbxo22 antibody (GTX117774, GeneTex) used as a primary antibody, which was diluted to 1:200, and was then detected using an HRP-polymer-labeled secondary antibody (Histofine Simple Stain MAX PO (multi), Nichirei, Japan). […] The Fbxo22-positive cells were evaluated according to a blind test conducted by two pathologist. […]

[9] = tested on: ERα-positive breast cancer; settings: cited from earlier work

Sequence of CFP-LacER, YFP-SRC-1 and FLAG-KDM4B foci (P03372 311-547 limits assumed): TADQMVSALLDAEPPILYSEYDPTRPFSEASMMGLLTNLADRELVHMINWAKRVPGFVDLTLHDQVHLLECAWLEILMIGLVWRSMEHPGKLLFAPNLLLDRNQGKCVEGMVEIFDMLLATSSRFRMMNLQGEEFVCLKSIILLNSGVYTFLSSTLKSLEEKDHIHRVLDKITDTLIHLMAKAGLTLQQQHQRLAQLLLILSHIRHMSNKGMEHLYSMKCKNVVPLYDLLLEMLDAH

## 4-hydroxytamoxifen [4-OHT]
[1]; Fbxo22-depleted cells
  colocalization of FLAG-KDM4B with CFP-LacER and YFP-SRC-1: colocalized
[1]; control cells
  colocalization of FLAG-KDM4B with CFP-LacER and YFP-SRC-1: not observed
[2]; Fbxo22-depleted MCF-7 cells, E2 then 4-OHT
  cofactor dynamics (KDM4B/SRC-3 dissociation, N-CoR interaction with ERα): not observed
[2]; control MCF-7 cells stimulated by E2, then 4-OHT
  complex of ERα with KDM4B and SRC-3: dissociated
T47D cells
  colony formation: significantly promoted
[3]
  ubiquitination of KDM4B forming a complex with ERα: recovered
[4]; Fbxo22-depleted MCF-7 cells
  antagonistic activity of 4-OHT on transcription of EBAG9 and GREB1: suppressed
[4]; MCF-7, E2-depleted 72 h, E2 10 nM, 4-OHT 100 nM added 6 hours after E2
  time after addition of 4-OHT at which transcript levels of GREB1 and EBAG1 became minimum: Six
[4]; control MCF-7 cells stimulated by E2, treated with 4-OHT
  transcription of EBAG9 and GREB1: strongly suppressed
MCF-7 cells; Fbxo22-depleted MCF-7 cells
  proliferation-suppressing effect of 4-OHT: reduced
MCF-7 cells; Fbxo22-depleted MCF-7 cells with Fbxo22 re-expressed (FLAG-Fbxo22)
  proliferation-suppressing effect of 4-OHT: recovered
MCF-7 cells; control MCF-7 cells, E2 10 nM, 4-OHT 100 nM
  proliferation (colony formation) in the presence of E2: completely suppressed
[5]
  FLAG-Fbxo22 binding to ERα: recovered (increased)
T47D breast cancer cells
  tumor growth (tumor volume): clear increase
ERα [6]; wild-type ERα expressed, stimulated by E2
  antagonistic activity of 4-OHT: suppressed
ERα [6]; Δ44 ERα expressed
  antagonistic activity of 4-OHT: observed
ERα [7]; Fbxo22-depleted MCF-7 cells
  ERα accumulation peaks detected: 19,924
ERα [7]; MCF-7 cells, E2+4-OHT versus E2
  interaction of ERα with a target region: does not affect
ERα [7]; control and Fbxo22-depleted MCF-7 cells, E2 line = E2, 4-OHT line = E2+4-OHT
  accumulation of ERα in the promoter regions of GREB1 and IGFBP4 genes: maintained
ERα [7]; wild-type/control MCF-7 cells
  ERα accumulation peaks detected: 26,751

## CC/C(=C(\c1ccccc1)c1ccc(OCCN(C)C)cc1)c1ccccc1 [TAM, Tamoxifen]
[8]
  prognosis (relapse-free survival) of Fbxo22-negative breast cancer: extremely poor prognosis
[9]; TAM therapy
  reduction of annual breast cancer mortality rate: approximately 30%
[9]; patients treated by TAM
  early breast cancer patients with a recurrence within 15 years: approximately 25%
